Where a SMILES comes first, the peptide text is derived from it. [ ]: non-standard residue; d: D form. The star is where a group is joined. Biotin = O=C1N[C@H]2[C@H](CS[C@H]2CCCCC(=O)*)N1; Phe(3,4-Cl2) = N[C@@H](Cc1ccc(Cl)c(Cl)c1)C(=O)O; Lys(Me3) = C[N+](C)(C)CCCC[C@H](N)C(=O)O; Phe(4-Me) = Cc1ccc(C[C@H](N)C(=O)O)cc1; Palmitoyl = CCCCCCCCCCCCCCCC(=O)*; Hyp = O=C(O)[C@@H]1C[C@@H](O)CN1

What all share (format): cell-based, Human
For experiment [1], the system named is Collagen I (type I collagen). Description: ELISA: effect of increasing the content of Collagen I in fibroblasts. Details: Effect of increasing the content of Collagen I in the fibroblasts: unit not given here. The settings on record: 1 µM, 24 h; for Effect of increasing the content of Collagen I in the fibroblasts: human-derived fibroblasts, ELISA, blank control BC = 35.6; for increase in the content of type I collagen (Collagen I): in words, compared to the BC, fibroblasts. As for the experimental part:
(§1) B. Effects of increasing the contents of Collagen I (type I collagen), hyaluronic acid (HA), and Elastin (ELN) in fibroblasts
(§2) Test materials: Human-derived fibroblasts (Guangdong BioCell Biotechnology Co., Ltd., Lot No. Fb20081902), DMEM culture medium (Gibco, 23042301, expiration date 230522), PBS (Solarbio, P1010), TGF-β1 (Peprotech, 230504), Collagen I ELISA Kit (Cusabio, B21025824), Elastin ELISA Kit (Abcam, GR3446070-2), HA ELISA Kit (RD, P325066), CO2 incubator (Thermo, 150I), super-clean bench (AIRTECH, SW-CJ-1F), and microplate reader (BioTek, Epoch).
(§3) Test methods: • 1) Inoculation: After cell resuscitation, the cells were inoculated into 6-well plates when the plating rate reached around 60%, and were incubated overnight in an incubator (37°C, 5% CO2). • 2) Formulation of solutions: The linear peptide compounds in the sample groups, and PC2 (Biotinoyl-GHK, [drawing 69] ) and PC3 ( [drawing 70] ) in the positive control group were all at the concentration of 1 µM, and the test substance working solutions were formulated. • 3) Administration: When the cell plating rate in the 6-well plates reached 40% to 60%, administration was performed at 2 mL per well. Three duplicate wells were set for each group. Incubation was performed in an incubator (37°C, 5% CO2) for 24 h. • 4) ELISA assay: The ELISA assays were performed according to the instructions of the respective ELISA kits, with the detection indicators being effect of increasing the content of Collagen I in the fibroblasts, effect of increasing the content of HA in the fibroblasts, and effect of increasing the content of Elastin in the fibroblasts, respectively.
A general note: ELISA stands for enzyme-linked immunosorbent assay.

Experiment [2] concerns hyaluronic acid (HA). Description: ELISA: effect of increasing the content of HA in fibroblasts. The following applies: 1 µM, 24 h; for Effect of increasing the content of HA in the fibroblasts: human-derived fibroblasts, ELISA, blank control BC = 1402.44; for increase in the content of hyaluronic acid (HA): in words, compared to the BC, fibroblasts. Details: Effect of increasing the content of HA in the fibroblasts: unit not given here. As for the experimental part:
as §1, §2, §3

In experiment [3] the test system is Elastin (ELN). Kind of experiment: ELISA: effect of increasing the content of Elastin in fibroblasts. Details: Effect of increasing the content of Elastin in the fibroblasts: unit not given here. The settings on record: 1 µM; for Effect of increasing the content of Elastin in the fibroblasts: 24 h incubation, ELISA, blank control (BC) 756.52; for increase in the content of Elastin: in words, compared to the BC, 24 h, fibroblasts. As for the experimental part: as §1, §2, §3

`CNC(=O)[C@H](Cc1ccc(C)cc1)NC(=O)[C@H](C)NC(=O)[C@H](CCCCN)NC(=O)[C@H](Cc1c[nH]cn1)NC(=O)CNC(=O)[C@H](CCCC[N+](C)(C)C)NC(C)=O` [compound 337] (Ac-[Lys(Me3)]GHKA[Phe(4-Me)]-NHMe): in experiment [1], the “Effect of increasing the content of Collagen I in the fibroblasts” value is on record as 95.66 and the “increase in the content of type I collagen (Collagen I)” value (from here on “increase in the content … (Collagen I)”) is reported as “significant increase”. In addition, in experiment [2], the “Effect of increasing the content of HA in the fibroblasts” value (shortened to “Effect of increasing the content of HA”) turned out to be 2421.21 and the “increase in the content of hyaluronic acid (HA)” value (from here on “increase in the content … (HA)”) is reported as “significant increase”. In addition, in experiment [3], the “Effect of increasing the content of Elastin in the fibroblasts” value worked out at 1320.95 and the “increase in the content of Elastin” value was “significant increase”.

Take `CNC(=O)[C@H](Cc1ccc(Cl)c(Cl)c1)NC(=O)[C@H](C)NC(=O)[C@H](CCCCN)NC(=O)[C@H](Cc1c[nH]cn1)NC(=O)CNC(=O)[C@H](CCCC[N+](C)(C)C)NC(C)=O` [compound 338] (Ac-[Lys(Me3)]GHKA[Phe(3,4-Cl2)]-NHMe): in experiment [1], the “Effect of increasing the content of Collagen I in the fibroblasts” value worked out at 89.07 and the “increase in the content … (Collagen I)” value is listed as “significant increase”. Also, in experiment [2], the “Effect of increasing the content of HA” value turned out to be 1913.07 and the “increase in the content … (HA)” value is “significant increase”. Besides, in experiment [3], the “Effect of increasing the content of Elastin in the fibroblasts” value worked out at 1060.72 and the “increase in the content of Elastin” value is “significant increase”.

Consider `CNC(=O)[C@H](Cc1ccc(C)cc1)NC(=O)CNC(=O)[C@H](CCCCN)NC(=O)[C@H](Cc1c[nH]cn1)NC(=O)CNC(=O)[C@H](CCCC[N+](C)(C)C)NC(C)=O` [compound 349] (Ac-[Lys(Me3)]GHKG[Phe(4-Me)]-NHMe), for which, in experiment [1], the “Effect of increasing the content of Collagen I in the fibroblasts” value amounted to 90.16 and the “increase in the content … (Collagen I)” value is given as “significant increase”. In experiment [2], the “Effect of increasing the content of HA” value is 1794.21 and the “increase in the content … (HA)” value was “significant increase”. Further, in experiment [3], the “Effect of increasing the content of Elastin in the fibroblasts” value was found to be 836 and the “increase in the content of Elastin” value is given as “significant increase”.

`CNC(=O)[C@H](CCCC[N+](C)(C)C)NC(=O)CNC(=O)[C@H](Cc1c[nH]cn1)NC(=O)[C@H](CCCCN)NC(=O)[C@H](Cc1ccc(C)cc1)NC(C)=O` [compound 358] (Ac-[Phe(4-Me)]KHG[Lys(Me3)]-NHMe): in experiment [1], the “Effect of increasing the content of Collagen I in the fibroblasts” value was determined as 81.27 and the “increase in the content … (Collagen I)” value was “significant increase”. In experiment [2], the “Effect of increasing the content of HA” value turned out to be 1913.78 and the “increase in the content … (HA)” value is “significant increase”. In experiment [3], the “Effect of increasing the content of Elastin in the fibroblasts” value stood at 1133.42 and the “increase in the content of Elastin” value is “significant increase”.

Turning to `CNC(=O)[C@H](Cc1ccc(C)cc1)NC(=O)[C@H](CCCCNC(=O)[C@@H]1C[C@@H](O)CN1)NC(=O)[C@H](Cc1c[nH]cn1)NC(=O)CNC(=O)[C@H](CCCC[N+](C)(C)C)NC(C)=O` [compound 373] (Ac-[Lys(Me3)]GHK(Hyp)[Phe(4-Me)]-NHMe), in experiment [1], the “Effect of increasing the content of Collagen I in the fibroblasts” value amounted to 57.84 and the “increase in the content … (Collagen I)” value is “significant increase”. Moreover, in experiment [2], the “Effect of increasing the content of HA” value is on record as 2472.81 and the “increase in the content … (HA)” value is on record as “significant increase”. Also, in experiment [3], the “Effect of increasing the content of Elastin in the fibroblasts” value turned out to be 843.14 and the “increase in the content of Elastin” value is “significant increase”.

As for `CCCCCCCCCCCCCCCC(=O)N[C@@H](CCCC[N+](C)(C)C)C(=O)NCC(=O)N[C@@H](Cc1c[nH]cn1)C(=O)N[C@@H](CCCCNC(=O)[C@@H]1CCCN1)C(=O)N[C@@H](Cc1ccc(C)cc1)C(=O)O` [compound 397] (Palmitoyl-[Lys(Me3)]GHK(Pro)[Phe(4-Me)]-OH), in experiment [1], the “Effect of increasing the content of Collagen I in the fibroblasts” value worked out at 54.45 and the “increase in the content … (Collagen I)” value is on record as “significant increase”. In addition, in experiment [2], the “Effect of increasing the content of HA” value was 1832.87 and the “increase in the content … (HA)” value is on record as “significant increase”. Moreover, in experiment [3], the “Effect of increasing the content of Elastin in the fibroblasts” value was determined as 1115.1 and the “increase in the content of Elastin” value was “significant increase”.

Turning to `CCCCCCCCCCCCCCCC(=O)N[C@@H](CCCC[N+](C)(C)C)C(=O)NCC(=O)N[C@@H](Cc1c[nH]cn1)C(=O)N[C@@H](CCCCNC(=O)[C@@H]1C[C@@H](O)CN1)C(=O)N[C@@H](Cc1ccc(C)cc1)C(=O)O` [compound 403] (Palmitoyl-[Lys(Me3)]GHK(Hyp)[Phe(4-Me)]-OH), in experiment [1], the “Effect of increasing the content of Collagen I in the fibroblasts” value was found to be 97.51 and the “increase in the content … (Collagen I)” value was “significant increase”. For the same compound, in experiment [2], the “Effect of increasing the content of HA” value is on record as 2688.75 and the “increase in the content … (HA)” value is given as “significant increase”. In addition, in experiment [3], the “Effect of increasing the content of Elastin in the fibroblasts” value stood at 928.61 and the “increase in the content of Elastin” value is on record as “significant increase”.

As to `Cc1ccc(C[C@H](NC(=O)[C@H](CCCCNC(=O)[C@@H]2C[C@@H](O)CN2)NC(=O)[C@H](Cc2c[nH]cn2)NC(=O)CNC(=O)[C@H](CCCC[N+](C)(C)C)NC(=O)CCCC[C@@H]2SC[C@@H]3NC(=O)N[C@@H]32)C(N)=O)cc1` [compound 406] (Biotin-[Lys(Me3)]GHK(Hyp)[Phe(4-Me)]-NH2), in experiment [1], the “Effect of increasing the content of Collagen I in the fibroblasts” value is given as 88.9 and the “increase in the content … (Collagen I)” value is “significant increase”. For the same compound, in experiment [2], the “Effect of increasing the content of HA” value amounted to 1473.32 and the “increase in the content … (HA)” value is “significant increase”. Further, in experiment [3], the “Effect of increasing the content of Elastin in the fibroblasts” value is 947.33 and the “increase in the content of Elastin” value was “significant increase”.

With `CCCCCCCCCCCCCCCC(=O)N[C@@H](Cc1ccc(C)cc1)C(=O)N[C@@H](C)C(=O)N[C@@H](CCCCN)C(=O)N[C@@H](Cc1c[nH]cn1)C(=O)NCC(=O)N[C@@H](CCCC[N+](C)(C)C)C(=O)O` [compound 415] (Palmitoyl-[Phe(4-Me)]AKHG[Lys(Me3)]-OH), in experiment [1], the “Effect of increasing the content of Collagen I in the fibroblasts” value is 85.52 and the “increase in the content … (Collagen I)” value was “significant increase”. In experiment [2], the “Effect of increasing the content of HA” value is given as 1570.27 and the “increase in the content … (HA)” value is listed as “significant increase”. In experiment [3], the “Effect of increasing the content of Elastin in the fibroblasts” value came out at 1010.76 and the “increase in the content of Elastin” value was “significant increase”.

Turning to `CCCCCCCCCCCCCCCC(=O)N[C@@H](Cc1ccc(OCC)cc1)C(=O)N[C@@H](C)C(=O)N[C@@H](CCCCN)C(=O)N[C@@H](Cc1c[nH]cn1)C(=O)NCC(=O)N[C@@H](CCCC[N+](C)(C)C)C(=O)O` [compound 417] (Palmitoyl-Y(Et)AKHG[Lys(Me3)]-OH), in experiment [1], the “Effect of increasing the content of Collagen I in the fibroblasts” value is 92.88 and the “increase in the content … (Collagen I)” value is “significant increase”. Besides, in experiment [2], the “Effect of increasing the content of HA” value came to 1938.51 and the “increase in the content … (HA)” value is “significant increase”. Further, in experiment [3], the “Effect of increasing the content of Elastin in the fibroblasts” value stood at 861.32 and the “increase in the content of Elastin” value is “significant increase”.

These data come from patent publication EP4786485A1, “STRAIGHT CHAIN PEPTIDE COMPOUND AND USE THEREOF” (Shenzhen Zhongge Biological Technology Co., Ltd., priority 2023, dated 2026).
